Assay results reported in patent US12281121B2, “N-containing heteroaryl derivative and pharmaceutical composition comprising same as active ingredient for prevention or treatment of cancer” (VORONOI Inc., priority 2019, dated 2025).

Key:
Assay in all cases: ScanMAX Kinase analysis panel (DiscoverX)
Format in all cases: binding
RET(M918T) = target: T1, RET(M918T) (Homo sapiens, UniProt P07949, M918T); settings: read-out: adjusted percentage (% control)
T1 construct: purchased DiscoverX ScanMAX Kinase analysis panel
Procedure: (§1) The following experiment was performed in order to evaluate the inhibitory activity of the compound according to the present invention against more enzymes. Specifically, for Examples 1 and 3 selected among the Example compounds of the present invention, the enzyme (kinase) selectivity was set to be measured by commissioning DiscoverX, and an experiment was conducted using a ScanMAX™ Kinase analysis panel. In this case, the concentration of the drug treated with the enzyme was set to 1 μM in DMSO, the adjusted percentage (% control) was determined in the same manner as in the following Equation 1, and the results are shown in the following Table 3. (Example compound−Positive control)/(Negative control−Positive control)×100 [Equation 1]
(§2) In addition, the enzyme selectivity of the present invention was determined to be active against the corresponding enzyme when the adjusted percentage was <35% (that is, less than 35%).

EPHB6 = target: T2, EPHB6 (Homo sapiens, UniProt O15197); settings: read-out: adjusted percentage (% control)
T2 construct: purchased DiscoverX ScanMAX Kinase analysis panel
Procedure: as §1, §2

CSNK2A1 = target: T3, CSNK2A1 (Homo sapiens, UniProt P68400); settings: read-out: adjusted percentage (% control)
T3 construct: purchased DiscoverX
Procedure: as §1, §2

FLT3(R834Q) = target: T4, FLT3(R834Q) (Homo sapiens, UniProt P36888, R834Q); settings: read-out: adjusted percentage (% control)
T4 construct: purchased DiscoverX ScanMAX Kinase analysis panel
Procedure: as §1, §2

FLT3(ITD) = settings: 1 μM
Procedure: as §1, §2

ITK = target: T5, ITK (Homo sapiens, UniProt Q08881); settings: read-out: adjusted percentage (% control)
T5 construct: purchased DiscoverX ScanMAX Kinase analysis panel
Procedure: as §1, §2

FGFR1 = target: T6, FGFR1 (Homo sapiens, UniProt P11362); settings: read-out: adjusted percentage (% control)
T6 construct: purchased DiscoverX ScanMAX Kinase analysis panel
Procedure: as §1, §2

PDGFRB = target: T7, PDGFRB (Homo sapiens, UniProt P09619); settings: read-out: adjusted percentage (% control)
T7 construct: purchased DiscoverX ScanMAX Kinase analysis panel
Procedure: as §1, §2

MEK3 = target: T8, MEK3 (Homo sapiens, UniProt P46734); settings: read-out: adjusted percentage (% control)
T8 construct: purchased DiscoverX ScanMAX Kinase analysis panel
Procedure: as §1, §2

[1] = target: T9, ABL1(Y253F)-phosphorylated (Homo sapiens, UniProt P00519, Y253F); settings: read-out: adjusted percentage (% control)
T9 construct: purchased DiscoverX
Procedure: as §1, §2

FLT3(N841I) = target: T10, FLT3(N841I) (Homo sapiens, UniProt P36888, N841I); settings: read-out: adjusted percentage (% control)
T10 construct: purchased DiscoverX ScanMAX Kinase analysis panel
Procedure: as §1, §2

SNARK = target: T11, SNARK (Homo sapiens, UniProt Q9H093); settings: read-out: adjusted percentage (% control)
T11 construct: purchased DiscoverX ScanMAX Kinase analysis panel
Procedure: as §1, §2

FGR = target: T12, FGR (Homo sapiens, UniProt P09769); settings: read-out: adjusted percentage (% control)
T12 construct: purchased DiscoverX ScanMAX Kinase analysis panel
Procedure: as §1, §2

AURKA = target: T13, AURKA (Homo sapiens, UniProt O14965); settings: read-out: adjusted percentage (% control)
T13 construct: purchased DiscoverX
Procedure: as §1, §2

FRK = target: T14, FRK (Homo sapiens, UniProt P42685); settings: read-out: adjusted percentage (% control)
T14 construct: purchased DiscoverX ScanMAX Kinase analysis panel
Procedure: as §1, §2

[2] = target: T15, ABL1(Q252H)-phosphorylated (Homo sapiens, UniProt P00519, Q252H); settings: read-out: adjusted percentage (% control)
T15 construct: purchased DiscoverX
Procedure: as §1, §2

DDR1 = target: T16, DDR1 (Homo sapiens, UniProt Q08345); settings: read-out: adjusted percentage (% control)
T16 construct: purchased DiscoverX
Procedure: as §1, §2

[3] = target: T17, ABL1(H396P)-phosphorylated (Homo sapiens, UniProt P00519, H396P); settings: read-out: adjusted percentage (% control)
T17 construct: purchased DiscoverX
Procedure: as §1, §2

[4] = target: T18, EGFR(L747-E749del, A750P) (Homo sapiens, UniProt P00533, A750P/DEL747-749); settings: read-out: adjusted percentage (% control)
T18 construct: purchased DiscoverX
Procedure: as §1, §2

AURKC = target: T19, AURKC (Homo sapiens, UniProt Q9UQB9); settings: read-out: adjusted percentage (% control)
T19 construct: purchased DiscoverX
Procedure: as §1, §2

[5] = target: T20, ABL1(T315I)-phosphorylated (Homo sapiens, UniProt P00519, T315I); settings: read-out: adjusted percentage (% control)
T20 construct: purchased DiscoverX
Procedure: as §1, §2

CSNK2A2 = target: T21, CSNK2A2 (Homo sapiens, UniProt P19784); settings: read-out: adjusted percentage (% control)
T21 construct: purchased DiscoverX
Procedure: as §1, §2

KIT(D816V) = target: T22, KIT(D816V) (Homo sapiens, UniProt P10721, D816V); settings: read-out: adjusted percentage (% control)
T22 construct: purchased DiscoverX ScanMAX Kinase analysis panel
Procedure: as §1, §2

TRKC = target: T23, TRKC (Homo sapiens, UniProt Q16288); settings: read-out: adjusted percentage (% control)
T23 construct: purchased DiscoverX ScanMAX Kinase analysis panel
Procedure: as §1, §2

RET(V804M) = target: T24, RET(V804M) (Homo sapiens, UniProt P07949, V804M); settings: read-out: adjusted percentage (% control)
T24 construct: purchased DiscoverX ScanMAX Kinase analysis panel
Procedure: as §1, §2

BLK = target: T25, BLK (Homo sapiens, UniProt P51451); settings: read-out: adjusted percentage (% control)
T25 construct: purchased DiscoverX
Procedure: as §1, §2

SRC = target: T26, SRC (Homo sapiens, UniProt P12931); settings: read-out: adjusted percentage (% control)
T26 construct: purchased DiscoverX ScanMAX Kinase analysis panel
Procedure: as §1, §2

FLT3 = target: T27, FLT3 (Homo sapiens, UniProt P36888); settings: read-out: adjusted percentage (% control)
T27 construct: purchased DiscoverX ScanMAX Kinase analysis panel
Procedure: as §1, §2

ICK = target: T28, ICK (Homo sapiens, UniProt Q9UPZ9); settings: read-out: adjusted percentage (% control)
T28 construct: purchased DiscoverX ScanMAX Kinase analysis panel
Procedure: as §1, §2

MERTK = target: T29, MERTK (Homo sapiens, UniProt Q12866); settings: read-out: adjusted percentage (% control)
T29 construct: purchased DiscoverX ScanMAX Kinase analysis panel
Procedure: as §1, §2

HCK = target: T30, HCK (Homo sapiens, UniProt P08631); settings: read-out: adjusted percentage (% control)
T30 construct: purchased DiscoverX ScanMAX Kinase analysis panel
Procedure: as §1, §2

FLT3(D835Y) = target: T31, FLT3(D835Y) (Homo sapiens, UniProt P36888, D835Y); settings: read-out: adjusted percentage (% control)
T31 construct: purchased DiscoverX ScanMAX Kinase analysis panel
Procedure: as §1, §2

KIT(A829P) = target: T32, KIT(A829P) (Homo sapiens, UniProt P10721, A829P); settings: read-out: adjusted percentage (% control)
T32 construct: purchased DiscoverX ScanMAX Kinase analysis panel
Procedure: as §1, §2

MST1 = target: T33, MST1 (Homo sapiens, UniProt Q13043); settings: read-out: adjusted percentage (% control)
T33 construct: purchased DiscoverX ScanMAX Kinase analysis panel
Procedure: as §1, §2

[6] = target: T34, JAK2(JH1domain-catalytic) (Homo sapiens, UniProt O60674); settings: read-out: adjusted percentage (% control)
T34 construct: JAK2(JH1domain-catalytic); purchased DiscoverX ScanMAX Kinase analysis panel
Procedure: as §1, §2

EGFR(L858R, T790M) = target: T35, EGFR(L858R, T790M) (Homo sapiens, UniProt P00533, L858R/T790M); settings: read-out: adjusted percentage (% control)
T35 construct: purchased DiscoverX
Procedure: as §1, §2

T22 sequence (P10721 26-976 D816V): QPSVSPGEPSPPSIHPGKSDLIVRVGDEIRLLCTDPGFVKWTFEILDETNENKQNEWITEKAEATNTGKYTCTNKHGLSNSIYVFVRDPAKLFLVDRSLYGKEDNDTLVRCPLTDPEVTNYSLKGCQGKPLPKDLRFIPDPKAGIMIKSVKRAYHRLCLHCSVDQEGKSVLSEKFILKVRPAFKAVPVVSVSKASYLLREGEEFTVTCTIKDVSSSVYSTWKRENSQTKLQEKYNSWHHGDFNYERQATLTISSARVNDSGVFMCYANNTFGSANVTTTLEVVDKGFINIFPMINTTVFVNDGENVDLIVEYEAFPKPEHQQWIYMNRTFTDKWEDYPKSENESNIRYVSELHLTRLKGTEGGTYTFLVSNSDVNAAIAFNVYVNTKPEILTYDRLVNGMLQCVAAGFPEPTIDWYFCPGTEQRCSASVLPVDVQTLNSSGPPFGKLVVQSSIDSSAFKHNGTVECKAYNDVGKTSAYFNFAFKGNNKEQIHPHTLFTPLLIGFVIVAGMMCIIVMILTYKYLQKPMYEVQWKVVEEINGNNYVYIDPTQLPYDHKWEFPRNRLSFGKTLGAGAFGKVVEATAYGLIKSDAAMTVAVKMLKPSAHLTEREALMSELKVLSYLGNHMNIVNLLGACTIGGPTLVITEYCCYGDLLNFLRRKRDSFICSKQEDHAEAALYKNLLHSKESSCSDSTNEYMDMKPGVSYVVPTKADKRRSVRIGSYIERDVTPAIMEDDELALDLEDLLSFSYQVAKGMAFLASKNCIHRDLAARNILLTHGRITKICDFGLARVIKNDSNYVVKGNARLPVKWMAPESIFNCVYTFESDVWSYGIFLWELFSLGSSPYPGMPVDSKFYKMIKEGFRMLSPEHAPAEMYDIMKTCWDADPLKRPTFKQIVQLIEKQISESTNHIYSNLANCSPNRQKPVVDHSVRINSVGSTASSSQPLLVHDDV
T16 sequence (Q08345 19-913): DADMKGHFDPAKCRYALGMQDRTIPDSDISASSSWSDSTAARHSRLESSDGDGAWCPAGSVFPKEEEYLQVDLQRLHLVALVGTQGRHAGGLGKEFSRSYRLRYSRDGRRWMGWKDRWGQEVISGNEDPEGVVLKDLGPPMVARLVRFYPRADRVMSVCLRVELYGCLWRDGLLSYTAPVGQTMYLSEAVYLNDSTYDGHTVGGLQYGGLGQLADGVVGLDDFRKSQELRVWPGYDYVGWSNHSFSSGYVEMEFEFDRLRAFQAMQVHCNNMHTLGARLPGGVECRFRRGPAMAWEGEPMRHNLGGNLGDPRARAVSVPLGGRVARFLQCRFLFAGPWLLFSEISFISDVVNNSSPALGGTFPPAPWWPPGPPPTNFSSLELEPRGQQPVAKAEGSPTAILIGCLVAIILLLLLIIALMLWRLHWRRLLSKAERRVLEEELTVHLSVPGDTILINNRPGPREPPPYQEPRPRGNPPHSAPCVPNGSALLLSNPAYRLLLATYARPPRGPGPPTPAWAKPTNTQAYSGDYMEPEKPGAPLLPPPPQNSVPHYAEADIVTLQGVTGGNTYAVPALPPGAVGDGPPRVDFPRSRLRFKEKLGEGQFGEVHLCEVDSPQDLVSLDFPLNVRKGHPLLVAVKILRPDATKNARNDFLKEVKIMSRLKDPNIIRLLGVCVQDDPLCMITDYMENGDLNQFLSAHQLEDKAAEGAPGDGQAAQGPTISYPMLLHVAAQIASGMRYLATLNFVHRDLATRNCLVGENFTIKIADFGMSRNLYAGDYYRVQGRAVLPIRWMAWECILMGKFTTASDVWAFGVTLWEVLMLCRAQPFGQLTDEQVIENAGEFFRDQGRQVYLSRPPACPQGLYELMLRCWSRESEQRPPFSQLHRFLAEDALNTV
T34 sequence (O60674 849-1124 limits assumed): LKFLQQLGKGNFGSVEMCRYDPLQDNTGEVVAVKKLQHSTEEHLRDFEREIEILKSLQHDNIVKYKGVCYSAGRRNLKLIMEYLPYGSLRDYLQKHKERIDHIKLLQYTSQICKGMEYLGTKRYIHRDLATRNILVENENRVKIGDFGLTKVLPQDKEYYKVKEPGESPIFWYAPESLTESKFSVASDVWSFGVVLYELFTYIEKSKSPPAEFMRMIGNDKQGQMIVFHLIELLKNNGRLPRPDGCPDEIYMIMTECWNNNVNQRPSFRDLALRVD
T13 sequence (O14965 whole entry): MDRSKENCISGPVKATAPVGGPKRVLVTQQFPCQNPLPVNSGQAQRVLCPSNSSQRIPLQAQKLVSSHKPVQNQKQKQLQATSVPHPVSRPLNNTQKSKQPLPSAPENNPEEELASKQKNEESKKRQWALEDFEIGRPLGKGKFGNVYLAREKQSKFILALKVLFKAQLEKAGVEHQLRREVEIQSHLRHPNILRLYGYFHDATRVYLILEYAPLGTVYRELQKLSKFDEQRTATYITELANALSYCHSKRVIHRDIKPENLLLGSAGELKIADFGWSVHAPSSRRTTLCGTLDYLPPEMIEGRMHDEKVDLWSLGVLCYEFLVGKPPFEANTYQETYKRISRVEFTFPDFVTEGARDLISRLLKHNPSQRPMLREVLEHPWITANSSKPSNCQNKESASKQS
T24 sequence (P07949 29-1114 V804M): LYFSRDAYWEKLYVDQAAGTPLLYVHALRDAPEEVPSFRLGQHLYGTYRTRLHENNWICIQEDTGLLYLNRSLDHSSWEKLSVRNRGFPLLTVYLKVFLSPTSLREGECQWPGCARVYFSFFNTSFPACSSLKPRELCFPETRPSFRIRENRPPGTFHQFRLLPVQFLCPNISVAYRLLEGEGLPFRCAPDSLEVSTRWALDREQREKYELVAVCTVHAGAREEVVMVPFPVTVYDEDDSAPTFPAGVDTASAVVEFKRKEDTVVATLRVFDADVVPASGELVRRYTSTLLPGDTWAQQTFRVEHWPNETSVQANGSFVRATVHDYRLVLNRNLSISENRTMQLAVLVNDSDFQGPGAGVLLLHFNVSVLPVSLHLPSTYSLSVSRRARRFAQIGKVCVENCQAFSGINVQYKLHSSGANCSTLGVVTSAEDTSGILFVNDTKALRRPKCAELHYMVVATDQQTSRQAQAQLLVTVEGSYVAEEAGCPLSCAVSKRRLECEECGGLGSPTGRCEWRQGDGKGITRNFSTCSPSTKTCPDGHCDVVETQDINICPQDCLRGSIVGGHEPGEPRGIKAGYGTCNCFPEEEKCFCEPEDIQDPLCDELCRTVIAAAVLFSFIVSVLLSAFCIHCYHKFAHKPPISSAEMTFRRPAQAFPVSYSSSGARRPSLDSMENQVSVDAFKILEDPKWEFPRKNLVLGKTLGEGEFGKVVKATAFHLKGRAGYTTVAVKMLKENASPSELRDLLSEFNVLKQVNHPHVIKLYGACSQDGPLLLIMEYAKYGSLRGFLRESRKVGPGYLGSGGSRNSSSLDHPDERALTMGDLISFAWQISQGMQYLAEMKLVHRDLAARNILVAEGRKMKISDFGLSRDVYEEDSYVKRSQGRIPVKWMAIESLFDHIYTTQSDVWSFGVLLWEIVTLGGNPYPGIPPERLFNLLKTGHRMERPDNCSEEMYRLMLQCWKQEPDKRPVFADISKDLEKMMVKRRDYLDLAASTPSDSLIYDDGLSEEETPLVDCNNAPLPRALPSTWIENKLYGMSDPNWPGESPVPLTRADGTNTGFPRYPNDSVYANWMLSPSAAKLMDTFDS
T5 sequence (Q08881 whole entry): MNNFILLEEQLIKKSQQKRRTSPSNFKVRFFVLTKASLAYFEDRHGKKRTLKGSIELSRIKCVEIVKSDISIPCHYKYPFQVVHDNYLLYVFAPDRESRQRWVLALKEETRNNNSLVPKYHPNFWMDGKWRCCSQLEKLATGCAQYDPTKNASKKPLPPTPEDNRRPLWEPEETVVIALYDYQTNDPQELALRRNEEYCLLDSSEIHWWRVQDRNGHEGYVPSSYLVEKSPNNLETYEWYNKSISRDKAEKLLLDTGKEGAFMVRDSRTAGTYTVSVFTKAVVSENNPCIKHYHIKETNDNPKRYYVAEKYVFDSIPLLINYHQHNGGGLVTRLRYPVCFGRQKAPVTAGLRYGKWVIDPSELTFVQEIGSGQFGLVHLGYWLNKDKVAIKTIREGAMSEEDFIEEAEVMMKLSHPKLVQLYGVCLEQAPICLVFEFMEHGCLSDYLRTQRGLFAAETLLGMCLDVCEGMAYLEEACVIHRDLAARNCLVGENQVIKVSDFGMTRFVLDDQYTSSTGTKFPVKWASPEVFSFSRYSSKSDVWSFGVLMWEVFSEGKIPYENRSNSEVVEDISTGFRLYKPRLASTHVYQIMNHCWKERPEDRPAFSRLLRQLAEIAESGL
T14 sequence (P42685 whole entry): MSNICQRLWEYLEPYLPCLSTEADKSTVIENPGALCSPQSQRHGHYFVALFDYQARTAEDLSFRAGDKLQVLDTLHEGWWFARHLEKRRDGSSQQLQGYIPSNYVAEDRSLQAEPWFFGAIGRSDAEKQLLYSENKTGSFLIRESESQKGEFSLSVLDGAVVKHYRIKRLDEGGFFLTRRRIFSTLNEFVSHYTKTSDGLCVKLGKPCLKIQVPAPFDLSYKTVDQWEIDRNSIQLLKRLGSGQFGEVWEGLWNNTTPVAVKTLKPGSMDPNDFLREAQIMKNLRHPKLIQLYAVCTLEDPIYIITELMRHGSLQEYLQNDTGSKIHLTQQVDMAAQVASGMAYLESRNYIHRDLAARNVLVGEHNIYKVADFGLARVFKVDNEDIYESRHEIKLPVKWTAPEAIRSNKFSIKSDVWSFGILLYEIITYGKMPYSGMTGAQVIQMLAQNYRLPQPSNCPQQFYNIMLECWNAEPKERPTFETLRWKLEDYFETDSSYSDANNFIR
T19 sequence (Q9UQB9 whole entry): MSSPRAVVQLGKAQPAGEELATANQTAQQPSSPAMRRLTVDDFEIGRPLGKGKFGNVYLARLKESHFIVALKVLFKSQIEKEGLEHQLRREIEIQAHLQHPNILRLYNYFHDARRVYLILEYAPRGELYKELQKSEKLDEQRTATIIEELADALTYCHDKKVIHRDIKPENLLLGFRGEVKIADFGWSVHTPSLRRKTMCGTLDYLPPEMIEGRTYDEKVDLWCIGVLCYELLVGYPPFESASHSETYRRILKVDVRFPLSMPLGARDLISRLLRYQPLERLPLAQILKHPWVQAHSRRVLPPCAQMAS

| Compound | remaining binding at 1 µM (RET(M918T)) [%] | remaining binding at 1 µM (EPHB6) [%] | remaining binding at 1 µM (CSNK2A1) [%] | remaining binding at 1 µM (FLT3(R834Q)) [%] | adjusted percentage (% control) (FLT3(ITD)) [%] | remaining binding at 1 µM (ITK) [%] | remaining binding at 1 µM (FGFR1) [%] | remaining binding at 1 µM (PDGFRB) [%] | remaining binding at 1 µM (MEK3) [%] | remaining binding at 1 µM [1] [%] | remaining binding at 1 µM (FLT3(N841I)) [%] | remaining binding at 1 µM (SNARK) [%] | remaining binding at 1 µM (FGR) [%] | remaining binding at 1 µM (AURKA) [%] | remaining binding at 1 µM (FRK) [%] | remaining binding at 1 µM [2] [%] | remaining binding at 1 µM (DDR1) [%] | remaining binding at 1 µM [3] [%] | remaining binding at 1 µM [4] [%] | remaining binding at 1 µM (AURKC) [%] | other results |
| --- | --- | --- | --- | --- | --- | --- | --- | --- | --- | --- | --- | --- | --- | --- | --- | --- | --- | --- | --- | --- | --- |
| COc1ccc(CN2C3CC2CN(c2ccc(-c4nc(Nc5cc(C)[nH]n5)c5occc5n4)cn2)C3)cn1 [Example 1, 2-(6-(6-((6-methoxypyridin-3-yl)methyl)-3,6-diazabicyclo[3.1.1]heptan-3-yl)pyridin-3-yl)-N-(5-methyl-1H-pyrazol-3-yl)furo[3,2-d]pyrimidin-4-amine] | 0.9 | 2.6 | 2.4 | 23 | 4.9 | 2 | 11 | 15 | 27 | 20 | 0 | 22 | 12 | 4.1 | 18 | 15 | 25 | 28 | 16 | 15 | remaining binding at 1 µM [5]: 19%; remaining binding at 1 µM (CSNK2A2): 0%; remaining binding at 1 µM (KIT(D816V)): 32%; remaining binding at 1 µM (TRKC): 0.45%; remaining binding at 1 µM (RET(V804M)): 0%; remaining binding at 1 µM (BLK): 1.4%; remaining binding at 1 µM (SRC): 0.7%; remaining binding at 1 µM (FLT3): 1.2%; remaining binding at 1 µM (ICK): 33%; remaining binding at 1 µM (MERTK): 34%; remaining binding at 1 µM (HCK): 4.1%; remaining binding at 1 µM (FLT3(D835Y)): 1.5%; remaining binding at 1 µM (KIT(A829P)): 2.8%; remaining binding at 1 µM (MST1): 25%; remaining binding at 1 µM [6]: 0.1%; remaining binding at 1 µM (EGFR(L858R, T790M)): 6.9% |
| COc1ccc(CN2C3CC2CN(c2ccc(-c4nc(Nc5cc(C)[nH]n5)c5ccccc5n4)cn2)C3)cn1 [Example 3, 2-(6-(6-((6-methoxypyridin-3-yl)methyl)-3,6-diazabicyclo [3.1.1]heptan-3-yl)pyridin-3-yl)-N-(5-methyl-1H-pyrazol-3-yl)quinazolin-4-amine] | 0.25 | 4.8 | 1.5 | 9.1 | 1.2 | 1.6 | 4.3 | 2.7 | 4.9 | 21 | 0 | 17 | 8.4 | 2.2 | 34 | 17 | 12 | 21 | 17 | 21 | remaining binding at 1 µM [5]: 3.2%; remaining binding at 1 µM (CSNK2A2): 0.3%; remaining binding at 1 µM (KIT(D816V)): 6.5%; remaining binding at 1 µM (TRKC): 1%; remaining binding at 1 µM (RET(V804M)): 0%; remaining binding at 1 µM (BLK): 0.05%; remaining binding at 1 µM (SRC): 0%; remaining binding at 1 µM (FLT3): 0.55%; remaining binding at 1 µM (ICK): 28%; remaining binding at 1 µM (MERTK): 6.2%; remaining binding at 1 µM (HCK): 3.2%; remaining binding at 1 µM (FLT3(D835Y)): 0.55%; remaining binding at 1 µM (KIT(A829P)): 11%; remaining binding at 1 µM (MST1): 30%; remaining binding at 1 µM [6]: 0%; remaining binding at 1 µM (EGFR(L858R, T790M)): 6.6% |
